Data: patent publication US20150023885A1, “Antiperspirant Spray Devices and Compositions” (The Procter & Gamble Company, priority 2013, published 2015)

From the text: (§1) Solubility may be determined by measuring the amount of light transmittance (a light transmittance value) through a simple mixture of the non-volatile silicone fluid and liquid activation enhancer at the same weight/weight concentrations as in a final antiperspirant composition.
as §1, with “Solubility of a liquid activation enhancer in a non-volatile silicone” for “Solubility”, “(light” for “(a light”
The Spectronic Genesys 10 Vis utilizes a tungsten-halogen light source and has a spectral bandwidth of 5 nm, a wavelength range of 325 to 1100 nm, accuracy of ±1 nm and a repeatability of ±0.5 nm. Readouts include absorbance, transmittance and concentration. The spectrophotometer is set to 640 nm wavelength and the percent transmittance mode/readout. Polystyrene spectrometer cuvettes having a 1 cm optical light path and transmittance between ˜340 nm and ˜900 nm are used. One suitable example of a spectrometer cuvette is available from VWR International LLC under Catalog #97000-584 having a 2.5 to 4.5 ml capacity. The spectrophotometer is calibrated according to the manufacturer's instructions using a reference cuvette and composition comprised of just the non-volatile silicone fluid of interest. For example, if the test composition comprises 50 centistoke dimethicone and 15% w/w of isopropyl myristate, then the spectrometer is calibrated using a cuvette containing just 50 centistoke dimethicone. Sample cuvettes are filled sufficiently with a test composition of a non-volatile silicone fluid and liquid activation enhancer so that the light path of the spectrophotometer passes through the test composition in the cuvette. The sample cuvettes are shaken well just prior to taking a light transmittance reading.

Compound | light transmittance value | solubility in 50 centistoke dimethicone
CCCCCCCCCCCCCCCCCC(=O)OCCCC [butyl stearate] | about 100% | –
CCCCCCCCCCCCCC(C)C [isohexadecane] | about 100% | soluble in 50 centistoke dimethicone across the 2% to 30% w/w concentration range
PPG-14 butyl ether | – | insoluble in 50 centistoke dimethicone across the 2% to 30% w/w concentration range
mineral oil | about 100% | –
